According to ChEMBL document CHEMBL4354874, “Insights into PPARγ Phosphorylation and Its Inhibition Mechanism” (J Med Chem, 2020):
Activity calls are given as the source filed them. No cut-off for these calls is given here.

Molecular target: Cyclin-dependent kinase 5 (Homo sapiens) (UniProt Q00535)
Test: Inhibition of CDK5 (unknown origin) assessed as reduction in histone H1 phosphorylation

Cyclin-dependent kinase 5 (Homo sapiens), sequence (Q00535 whole entry, looked up): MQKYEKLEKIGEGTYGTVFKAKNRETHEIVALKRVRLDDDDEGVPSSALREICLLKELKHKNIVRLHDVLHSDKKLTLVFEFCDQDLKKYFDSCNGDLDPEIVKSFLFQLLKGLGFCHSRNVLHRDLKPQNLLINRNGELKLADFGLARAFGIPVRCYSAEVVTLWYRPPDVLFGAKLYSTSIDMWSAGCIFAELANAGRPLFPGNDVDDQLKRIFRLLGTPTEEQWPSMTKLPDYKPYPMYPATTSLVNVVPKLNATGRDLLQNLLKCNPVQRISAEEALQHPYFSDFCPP

inhibition: inactive
Compound: O=C(O)[C@H](Cc1ccccc1)Oc1ccc(-c2ccccc2)cc1
